# Test results as given in US10183015B2, “Heterocyclic compounds and methods of use” (Medivation Technologies LLC, priority 2015, dated 2019).
# “And” between values parts separate entries of the source, which are not always exact repeats. Equal values may be shown once.
# Key:
# Format in all cases: in vivo
# [1] = system: 60% high fat Paigen diet induced NASH mouse model; test: Short-term Paigen-diet NASH mouse model: liver weight and liver lipid content
# Experimental: To investigate whether Compound #37 prevents the development of pathology associated with NASH and steatosis in an acute exploratory disease model, a study was conducted using a diet-induced acute liver steatosis model in mice. […]
# After acclimation, 8-week old male C57Bl/6J mice (Charles River) weighing about 25 g were randomized in 4 groups according their body weight and treated once daily around noon by oral gavage with vehicle, […] (2-hydroxypropyl)-β-cyclodextrin (HP-β-CD) (n=10); Group 2: Compound #37, 5 mg/kg (n=10) Group 3: Compound #37, 20 mg/kg (n=10) Group 4: Compound #37, 40 mg/kg (n=10). During the treatment period, body weight and food intake (measured over 24h) were measured 3 times per week and once a week, respectively. During the acclimation, all mice were fed a standard diet (Special Diets Services RM1 (E), product no. 801492) and tap water ad libitum. […]
# After 21 days of treatment, mice were 4-hour fasted (9 am to 1 pm). One hour after the last dosing (noon), blood was collected by retro-orbital bleeding (maximal volume on EDTA) under isoflurane anesthesia to measure plasma triglycerides, total cholesterol, non-esterified fatty acid, ALT and AST. Mice were then sacrificed by cervical dislocation, and livers were harvested and weighed. Liver samples from the same lobe were dissected, frozen, and analyzed as described below.
# At the end of the treatment period, livers were weighed, and their lipid content was analyzed. The liver weights were unchanged by the treatment.
# LDLR = test: Short-term Paigen-diet NASH mouse model: hepatic LDLR gene expression (RT-qPCR); conditions: liver; for DDct: LDLR Dct relative to vehicle mean; for Dct: LDLR minus 18S; for 2DDct: LDLR relative expression to vehicle group, normalized to 18S; for LDLR: raw RT-qPCR value
# Experimental: (§1) To investigate whether Compound #37 prevents the development of pathology associated with NASH and steatosis in an acute exploratory disease model, a study was conducted using a diet-induced acute liver steatosis model in mice. As described below, in this study, C57BL/6J mice were initiated on the Paigen diet and simultaneously treated with Compound #37 (5, 20, and 40 mg/kg/day) or vehicle control (20% HPβCD 10 mL/kg/day) by oral gavage for 21 days.
# (§2) After acclimation, 8-week old male C57Bl/6J mice (Charles River) weighing about 25 g were randomized in 4 groups according their body weight and treated once daily around noon by oral gavage with vehicle, or Compound #37 at various for 21 days as follows: Group 1: vehicle-20% (2-hydroxypropyl)-β-cyclodextrin (HP-β-CD) (n=10); Group 2: Compound #37, 5 mg/kg (n=10) Group 3: Compound #37, 20 mg/kg (n=10) Group 4: Compound #37, 40 mg/kg (n=10). During the treatment period, body weight and food intake (measured over 24h) were measured 3 times per week and once a week, respectively. During the acclimation, all mice were fed a standard diet (Special Diets Services RM1 (E), product no. 801492) and tap water ad libitum. After the acclimation period, mice were fed until the end of the experiment with a 60% high fat Paigen diet (60 kcal % fat, 1.25% cholesterol, and 0.5% cholate; D11061901, Research Diet) and tap water ad libitum.
# (§3) Gene expression analysis. Hepatic expression levels of genes involved in lipid metabolism (FAS, SREBP1, ACC1, SCD1), cholesterol metabolism (HMG-CoAR, LDLR), SREBP proteolysis (SCAP, INSIG1), ER stress (PERK), oxidative stress (NRF2), inflammation (MCP-1), and fibrosis (collagen 1α1) were quantified by RTqPCR. Expression level was normalized to 18S gene expression and relative expression to vehicle group was calculated with the […] method.
# PERK = test: Short-term Paigen-diet NASH mouse model: hepatic PERK gene expression (RT-qPCR); conditions: 21 days
# Experimental: as §1, §2, §3
# [2] = 5 mg/kg p.o. daily, 21 days of diet and treatment, group mean
# [3] = 5 mg/kg p.o. daily, 21 days of diet and treatment, individual animals
# [4] = 20 mg/kg p.o. daily, 21 days of diet and treatment, group mean
# [5] = 20 mg/kg p.o. daily, 21 days of diet and treatment, individual animals
# [6] = 40 mg/kg p.o. (stopped after 4 administrations), 9 days of diet, group mean
# [7] = 40 mg/kg p.o. (stopped after 4 administrations), 9 days of diet, individual animals
# [8] = Compound #37 5 mg/kg, group mean, n=10
# [9] = Compound #37 5 mg/kg, individual animals, 5 mg/kg
# [10] = Compound #37 20 mg/kg, group mean, n=6
# [11] = Compound #37 20 mg/kg, individual animals, 20 mg/kg
smiles,measurement,setting,value
"CC(C)Cc1cc(-c2nc(-c3ccc(NS(=O)(=O)C(F)(F)F)cc3Cl)cs2)ccn1 [Compound 37, N-(3-chloro-4-(2-(2-isobutylpyridin-4-yl)thiazol-4-yl)phenyl)-1,1,1-trifluoromethanesulfonamide]",liver cholesterol (μg/mg tissue),[1]; [2],34.4 μg/mg tissue
same,liver fatty acids (nmol/mg tissue),[1]; [2],57.6 nmol/mg tissue
same,liver triglycerides (μg/mg tissue),[1]; [2],6.2 μg/mg tissue
same,liver cholesterol (μg/mg tissue),[1]; [3],42.24 μg/mg tissue and 37.91 μg/mg tissue and 31.39 μg/mg tissue and 23.12 μg/mg tissue and 31.47 μg/mg tissue and 25.31 μg/mg tissue and 29.76 μg/mg tissue and 37.34 μg/mg tissue and 49.15 μg/mg tissue and 36.57 μg/mg tissue
same,liver fatty acids (nmol/mg tissue),[1]; [3],65.4 nmol/mg tissue and 66.6 nmol/mg tissue and 53.5 nmol/mg tissue and 47.5 nmol/mg tissue and 55.2 nmol/mg tissue (2×) and 35.5 nmol/mg tissue and 55.0 nmol/mg tissue and 77.4 nmol/mg tissue and 65.2 nmol/mg tissue
same,liver triglycerides (μg/mg tissue),[1]; [3],6.91 μg/mg tissue and 7.18 μg/mg tissue and 4.64 μg/mg tissue and 9.62 μg/mg tissue and 6.13 μg/mg tissue (2×) and 5.69 μg/mg tissue and 5.49 μg/mg tissue and 3.62 μg/mg tissue and 6.16 μg/mg tissue
same,liver cholesterol (μg/mg tissue),[1]; [4],39.1 μg/mg tissue
same,liver fatty acids (nmol/mg tissue),[1]; [4],63.3 nmol/mg tissue
same,liver triglycerides (μg/mg tissue),[1]; [4],5.4 μg/mg tissue
same,liver cholesterol (μg/mg tissue),[1]; [5],38.32 μg/mg tissue and 42.07 μg/mg tissue and 39.38 μg/mg tissue and 32.61 μg/mg tissue and 40.02 μg/mg tissue and 42.44 μg/mg tissue
same,liver fatty acids (nmol/mg tissue),[1]; [5],63.4 nmol/mg tissue and 66.5 nmol/mg tissue and 65.0 nmol/mg tissue and 50.0 nmol/mg tissue and 62.7 nmol/mg tissue and 72.5 nmol/mg tissue
same,liver triglycerides (μg/mg tissue),[1]; [5],6.75 μg/mg tissue and 2.65 μg/mg tissue and 2.83 μg/mg tissue and 3.72 μg/mg tissue and 9.84 μg/mg tissue and 6.82 μg/mg tissue
same,liver cholesterol (μg/mg tissue),[1]; [6],20.3 μg/mg tissue
same,liver fatty acids (nmol/mg tissue),[1]; [6],43.0 nmol/mg tissue
same,liver triglycerides (μg/mg tissue),[1]; [6],11.7 μg/mg tissue
same,liver cholesterol (μg/mg tissue),[1]; [7],22.40 μg/mg tissue and 20.18 μg/mg tissue and 20.88 μg/mg tissue and 17.60 μg/mg tissue
same,liver fatty acids (nmol/mg tissue),[1]; [7],43.6 nmol/mg tissue and 43.1 nmol/mg tissue and 43.5 nmol/mg tissue and 41.8 nmol/mg tissue
same,liver triglycerides (μg/mg tissue),[1]; [7],9.11 μg/mg tissue and 11.15 μg/mg tissue and 14.68 μg/mg tissue and 11.77 μg/mg tissue
same,DDct,LDLR; [8],0.18
same,DDct,LDLR; [9],−0.92 and 0.13 and −0.60 and −0.98 and 1.46 and 1.39 and 0.04 and 0.33 and 0.52 and 0.37
same,DDct,LDLR; [10],−0.09
same,DDct,LDLR; [11],0.38 and 0.91 and 0.32 and −1.22 and 0.42 and −1.37
same,Dct,LDLR; [8],12.8
same,Dct,LDLR; [9],11.74 and 12.79 and 12.06 and 11.68 and 14.12 and 14.05 and 12.7 and 12.99 and 13.18 and 13.03
same,Dct,LDLR; [10],12.6
same,Dct,LDLR; [11],13.04 and 13.57 and 12.98 and 11.44 and 13.08 and 11.29
same,2DDct,LDLR; [8],1.03
same,2DDct,LDLR; [9],1.89 and 0.91 and 1.51 and 1.97 and 0.36 and 0.38 and 0.97 and 0.79 and 0.70 and 0.77
same,2DDct,LDLR; [10],1.29
same,2DDct,LDLR; [11],0.77 and 0.53 and 0.80 and 2.33 and 0.75 and 2.58
same,LDLR,LDLR; [8],25.1
same,LDLR,LDLR; [9],25.2 and 25.9 and 23.67 and 25.03 and 26.15 and 27.4 and 24.3 and 24.78 and 24.32 and 24.15
same,LDLR,LDLR; [10],24.8
same,LDLR,LDLR; [11],25.95 and 25.86 and 25.18 and 24.47 and 24.57 and 22.55
same,ER and oxidative stress gene expression PERK: 2DDct,"PERK; 5 mg/kg, group mean, n 10",0.91
same,ER and oxidative stress gene expression PERK: 18S,"PERK; 5 mg/kg, group mean, n 10",12.3
same,ER and oxidative stress gene expression PERK: DDct,"PERK; 5 mg/kg, group mean, n 10",0.32
same,ER and oxidative stress gene expression PERK: Dct,"PERK; 5 mg/kg, group mean, n 10",15.4
same,ER and oxidative stress gene expression PERK: PERK,"PERK; 5 mg/kg, group mean, n 10",27.6
same,ER and oxidative stress gene expression PERK: 2DDct,"PERK; 5 mg/kg, individual animals",1.29 and 0.54 and 0.35 and 1.5 and 0.42 and 0.58 and 1.06 and 1.56 and 0.97 and 0.79
same,ER and oxidative stress gene expression PERK: 18S,"PERK; 5 mg/kg, individual animals",13.46 and 13.11 and 11.61 and 13.35 (2×) and 12.03 and 11.6 and 11.79 and 11.14 and 11.12
same,ER and oxidative stress gene expression PERK: DDct,"PERK; 5 mg/kg, individual animals",−0.36 and 0.9 and 1.52 and −0.58 and 1.24 and 0.8 and −0.08 and −0.64 and 0.04 and 0.34
same,ER and oxidative stress gene expression PERK: Dct,"PERK; 5 mg/kg, individual animals",14.68 and 15.94 and 16.56 and 14.46 and 16.28 and 15.84 and 14.96 and 14.4 and 15.08 and 15.38
same,ER and oxidative stress gene expression PERK: PERK,"PERK; 5 mg/kg, individual animals",28.14 and 29.05 and 28.17 and 27.81 and 28.31 and 29.19 and 26.56 and 26.19 and 26.22 and 26.5
same,ER and oxidative stress gene expression PERK: 2DDct,"PERK; 20 mg/kg, group mean, n 6",1.33
same,ER and oxidative stress gene expression PERK: 18S,"PERK; 20 mg/kg, group mean, n 6",12.2
same,ER and oxidative stress gene expression PERK: DDct,"PERK; 20 mg/kg, group mean, n 6",−0.27
same,ER and oxidative stress gene expression PERK: Dct,"PERK; 20 mg/kg, group mean, n 6",14.8
same,ER and oxidative stress gene expression PERK: PERK,"PERK; 20 mg/kg, group mean, n 6",27
same,ER and oxidative stress gene expression PERK: 2DDct,"PERK; 20 mg/kg, individual animals",1.04 and 1.05 and 1.27 and 2.68 and 0.61 and 1.34
same,ER and oxidative stress gene expression PERK: 18S,"PERK; 20 mg/kg, individual animals",12.91 and 12.29 and 12.2 and 13.03 and 11.49 and 11.26
same,ER and oxidative stress gene expression PERK: DDct,"PERK; 20 mg/kg, individual animals",−0.05 and −0.07 and −0.34 and −1.42 and 0.72 and −0.42
same,ER and oxidative stress gene expression PERK: Dct,"PERK; 20 mg/kg, individual animals",14.99 and 14.97 and 14.7 and 13.62 and 15.76 and 14.62
same,ER and oxidative stress gene expression PERK: PERK,"PERK; 20 mg/kg, individual animals",27.9 and 27.26 and 26.9 and 26.65 and 27.25 and 25.88
